≈ marks a conversion by molar mass, not a printed value.
The compounds below were run on Mycobacterium tuberculosis (assay: Antimycobacterial activity against INH-resistant Mycobacterium tuberculosis by alamar blue broth microdilution assay).
Format: functional

Row | Compound | MIC90 [µM]
1 | CN1CC(c2ccccc2)C2(Cc3ccccc3C2=O)C12C(=O)c1ccccc1C2=O (stereo not drawn) | 26.2 (≈ 10.7 µg/mL)
2 | CN1CC(c2cncc(-c3ccc(F)cc3)c2)C2(Cc3ccccc3C2=O)C12C(=O)c1ccccc1C2=O (stereo not drawn) | 5.12 (≈ 2.57 µg/mL)
3 | CN1CC(c2ccc(Cl)cc2)C2(Cc3ccccc3C2=O)C12C(=O)c1ccccc1C2=O (stereo not drawn) | 24.2 (≈ 10.7 µg/mL)
4 | CN1CC(c2ccc(Br)cc2)C2(Cc3ccccc3C2=O)C12C(=O)c1ccccc1C2=O (stereo not drawn) | 21.4 (≈ 10.4 µg/mL)
5 | CN1CC(c2ccc(C(=O)O)cc2)C2(Cc3ccccc3C2=O)C12C(=O)c1ccccc1C2=O (stereo not drawn) | 18.3 (≈ 8.26 µg/mL)
6 | CN1CC(c2cccc([N+](=O)[O-])c2)C2(Cc3ccccc3C2=O)C12C(=O)c1ccccc1C2=O (stereo not drawn) | 16.8 (≈ 7.61 µg/mL)
7 | CN1CC(c2ccc(C(F)(F)F)cc2)C2(Cc3ccccc3C2=O)C12C(=O)c1ccccc1C2=O (stereo not drawn) | 13.6 (≈ 6.48 µg/mL)
8 | CN1CC(c2ccc(OC(F)(F)F)cc2)C2(Cc3ccccc3C2=O)C12C(=O)c1ccccc1C2=O (stereo not drawn) | 12.2 (≈ 6 µg/mL)
9 | COc1ccc(C2CN(C)C3(C(=O)c4ccccc4C3=O)C23Cc2ccccc2C3=O)cc1 (stereo not drawn) | > 6.25
10 | CN1CC(c2cccc3c2OCO3)C2(Cc3ccccc3C2=O)C12C(=O)c1ccccc1C2=O (stereo not drawn) | 32.4 (≈ 14.6 µg/mL)
11 | CN(C)c1ccc(C2CN(C)C3(C(=O)c4ccccc4C3=O)C23Cc2ccccc2C3=O)cc1 (stereo not drawn) | 43.3 (≈ 19.5 µg/mL)
12 | CN1CC(c2ccc(N3CCOCC3)cc2)C2(Cc3ccccc3C2=O)C12C(=O)c1ccccc1C2=O (stereo not drawn) | 27.2 (≈ 13.4 µg/mL)
13 | NNC(=O)c1ccncc1 [ISONIAZID] | 11.2 (≈ 1.54 µg/mL)

Source: ChEMBL document CHEMBL2062378, “Antimycobacterial activity: a facile three-component [3+2]-cycloaddition for the regioselective synthesis of highly functionalised dispiropyrrolidines” (Bioorg Med Chem Lett, 2012)
